From patent US9204653B2, “5-fluoro pyrimidine derivatives” (DOW AGROSCIENCES LLC, priority 2008, dated 2015) come the findings set out here.

The assay deals with Mycosphaerella graminicola; Anamorph: Septoria tritici; Bayer Code SEPTTR. Nature of the assay: Leaf blotch of wheat, foliar fungicide treatment, one day protectant (1DP) or three day curative (3DC). It counts as in vivo, Septoria tritici on wheat plants (variety Yuma). Particulars: Zymoseptoria tritici, rating of percent disease control.
Setting [1] is: 24 h, one day protectant (1DP), read-out: SETTTR 1DP 25 ppm.
[2] abbreviates: 24 h, one day protectant (1DP), read-out: SEPTTR 1DP 100 ppm.
Where [3] appears, read: 72 h, three day curative (3DC), read-out: SEPTTR 3DC 25 ppm.
The mark [4] stands for this setting: 72 h, three day curative (3DC), read-out: SEPTTR 3DC 100 ppm.

Each structure is given as a SMILES string. Where two headings read alike, the source gives them in different places.

In the case of `COc1cccc(COc2ncc(F)c(NCc3ccccc3F)n2)c1` [Compound 416], the pest or weed control at 25 ppm is, setting by setting: under setting [1], 0 to 25%; under setting [3], 0 to 25%. In addition, the pest or weed control at 100 ppm under setting [2] lay within 0 to 25% and the pest or weed control at 100 ppm under setting [4] was 26 to 50%.

As for `CN(C)/C=N/c1nc(OC(=O)C2CC2)ncc1F` [Compound 417], the pest or weed control at 25 ppm is, setting by setting: under setting [1], 76 to 100%; under setting [3], 76 to 100%. For the same compound, the pest or weed control at 100 ppm runs as follows: under setting [2], 76 to 100%; under setting [4], 76 to 100%.

Take `COCCOC(=O)Nc1nc(OCc2ccc(C)cc2)ncc1F` [Compound 419]: the pest or weed control at 25 ppm under setting [1] is 76 to 100% and the pest or weed control at 25 ppm under setting [3] was in the range of 76 to 100%. Further, the pest or weed control at 100 ppm runs as follows: under setting [2], 76 to 100%; under setting [4], 76 to 100%.

As to `CC(C)C(=O)Oc1ncc(F)c(/N=C/N(C)C)n1` [Compound 420], the pest or weed control at 25 ppm lay in the range of 76 to 100% under setting [1] and 76 to 100% under setting [3]. Also, the pest or weed control at 100 ppm under setting [2] is 76 to 100% and the pest or weed control at 100 ppm under setting [4] is 76 to 100%.

With `CN1CCCC/C1=N\c1nc(OCc2ccccc2)ncc1F` [Compound 421], the pest or weed control at 25 ppm fell in the range of 76 to 100% under setting [1] and 76 to 100% under setting [3]. For the same compound, the pest or weed control at 100 ppm reads like this: under setting [2], 76 to 100%; under setting [4], 76 to 100%.

Turning to `Cc1ccc(C(=O)Oc2ncc(F)c(/N=C/N(C)C)n2)c(C)c1` [Compound 422], the pest or weed control at 25 ppm reads like this: under setting [1], 76 to 100%; under setting [3], 76 to 100%. The pest or weed control at 100 ppm is 76 to 100% under setting [2] and 76 to 100% under setting [4].

As for `Nc1nc(OCc2cccc(O)c2)ncc1F` [Compound 423], the pest or weed control at 25 ppm lay in the range of 0 to 25% under setting [1] and 0 to 25% under setting [3]. The pest or weed control at 100 ppm runs as follows: under setting [2], 0 to 25%; under setting [4], 0 to 25%.

`CC(Oc1ncc(F)c(/N=C2\CCCCN2C)n1)c1ccc(F)cc1` (stereo not drawn) [Compound 424]: the pest or weed control at 25 ppm under setting [1] is 51 to 75% and the pest or weed control at 25 ppm under setting [3] was in the range of 51 to 75%. Moreover, the pest or weed control at 100 ppm reads like this: under setting [2], 76 to 100%; under setting [4], 76 to 100%.

Consider `CN(C)/C=N/c1nc(OC(=O)Oc2cccc(C(F)(F)F)c2)ncc1F` [Compound 425], for which the pest or weed control at 25 ppm lay in the range of 76 to 100% under setting [1] and 76 to 100% under setting [3]. The pest or weed control at 100 ppm reads like this: under setting [2], 76 to 100%; under setting [4], 76 to 100%.

For the compound `C/C(=N\Oc1ncc(F)c(/N=C/N(C)C)n1)c1ccccc1` [Compound 427], the pest or weed control at 25 ppm by setting is: under setting [1], 76 to 100%; under setting [3], 76 to 100%. In addition, the pest or weed control at 100 ppm under setting [2] lay in the range of 76 to 100% and the pest or weed control at 100 ppm under setting [4] was 76 to 100%.

In the case of `Nc1nc(OC(=O)c2snc(Cl)c2Cl)ncc1F` [Compound 428], the pest or weed control at 25 ppm lay within 51 to 75% under setting [1] and 26 to 50% under setting [3]. Also, the pest or weed control at 100 ppm is 51 to 75% under setting [2] and 76 to 100% under setting [4].

Take `Nc1nc(OCc2cnc(Cl)s2)ncc1F` [Compound 429]: the pest or weed control at 25 ppm was in the range of 76 to 100% under setting [1] and 76 to 100% under setting [3]. In addition, the pest or weed control at 100 ppm is, setting by setting: under setting [2], 76 to 100%; under setting [4], 76 to 100%.

As for `Nc1cccc(COc2ncc(F)c(N)n2)c1` [Compound 430], the pest or weed control at 25 ppm under setting [1] was 76 to 100% and the pest or weed control at 25 ppm under setting [3] lay in the range of 76 to 100%. Also, the pest or weed control at 100 ppm fell in the range of 76 to 100% under setting [2] and 76 to 100% under setting [4].

For the compound `Cc1cc(COc2ncc(F)c(N)n2)nn1C` [Compound 431], the pest or weed control at 25 ppm by setting is: under setting [1], 76 to 100%; under setting [3], 76 to 100%. The pest or weed control at 100 ppm fell in the range of 76 to 100% under setting [2] and 76 to 100% under setting [4].

Turning to `CC1(COc2ncc(F)c(N)n2)COC1` [Compound 433], the pest or weed control at 25 ppm reads like this: under setting [1], 0 to 25%; under setting [3], 0 to 25%. Moreover, the pest or weed control at 100 ppm was 0 to 25% under setting [2] and 0 to 25% under setting [4].

On to `CC[Si](CC)(CC)Nc1nc(OCc2ccn(C)n2)ncc1F` [Compound 434], for which the pest or weed control at 25 ppm was 76 to 100% under setting [1] and 76 to 100% under setting [3]. Moreover, the pest or weed control at 100 ppm lay within 76 to 100% under setting [2] and 76 to 100% under setting [4].

For `O=C(Nc1nc(OCc2ccccc2)ncc1F)c1ccccc1` [Compound 435], the pest or weed control at 25 ppm runs as follows: under setting [1], 76 to 100%; under setting [3], 51 to 75%. Further, the pest or weed control at 100 ppm is 76 to 100% under setting [2] and 76 to 100% under setting [4].

For `N#Cc1cc(COc2ncc(F)c(N)n2)ccn1` [Compound 437], the pest or weed control at 25 ppm under setting [1] is 0 to 25% and the pest or weed control at 25 ppm under setting [3] is 0 to 25%. The pest or weed control at 100 ppm lay in the range of 51 to 75% under setting [2] and 51 to 75% under setting [4].

On to `Fc1ccccc1CNC(=S)Nc1nc(OCc2ccccc2)ncc1F` [Compound 438], for which the pest or weed control at 25 ppm is, setting by setting: under setting [1], 51 to 75%; under setting [3], 0 to 25%. The pest or weed control at 100 ppm reads like this: under setting [2], 76 to 100%; under setting [4], 0 to 25%.

As to `Cc1cc(C)cc(COc2ncc(F)c(NSc3ccccc3[N+](=O)[O-])n2)c1` [Compound 440], the pest or weed control at 25 ppm reads like this: under setting [1], 0 to 25%; under setting [3], 26 to 50%. Moreover, the pest or weed control at 100 ppm under setting [2] lay in the range of 0 to 25% and the pest or weed control at 100 ppm under setting [4] was in the range of 0 to 25%.

With `CC(C)Oc1cccc(COc2ncc(F)c(N)n2)c1` [Compound 441], the pest or weed control at 25 ppm was 76 to 100% under setting [1] and 76 to 100% under setting [3]. Further, the pest or weed control at 100 ppm fell in the range of 76 to 100% under setting [2] and 76 to 100% under setting [4].

Take `Nc1nc(OCc2snc(Cl)c2Cl)ncc1F` [Compound 442]: the pest or weed control at 25 ppm under setting [1] was in the range of 76 to 100% and the pest or weed control at 25 ppm under setting [3] lay within 76 to 100%. The pest or weed control at 100 ppm was 76 to 100% under setting [2] and 76 to 100% under setting [4].

For the compound `Cc1ccc(COc2ncc(F)c(NSc3ccccc3[N+](=O)[O-])n2)cc1` [Compound 443], the pest or weed control at 25 ppm fell in the range of 76 to 100% under setting [1] and 26 to 50% under setting [3]. Besides, the pest or weed control at 100 ppm under setting [2] is 76 to 100% and the pest or weed control at 100 ppm under setting [4] lay within 26 to 50%.

For the compound `COc1ccccc1OC(=O)Oc1ncc(F)c(/N=C/N(C)C)n1` [Compound 444], the pest or weed control at 25 ppm is, setting by setting: under setting [1], 76 to 100%; under setting [3], 76 to 100%. Besides, the pest or weed control at 100 ppm was 76 to 100% under setting [2] and 76 to 100% under setting [4].

Take `CCCNC(=O)N(C(=O)NCCC)c1nc(OCc2cccc(F)c2)ncc1F` [Compound 445]: the pest or weed control at 25 ppm by setting is: under setting [1], 51 to 75%; under setting [3], 76 to 100%. The pest or weed control at 100 ppm is 76 to 100% under setting [2] and 76 to 100% under setting [4].

As for `COc1cc(COc2ncc(F)c(N)n2)c(OC)cc1C` [Compound 450], the pest or weed control at 25 ppm lay in the range of 76 to 100% under setting [1] and 76 to 100% under setting [3]. For the same compound, the pest or weed control at 100 ppm reads like this: under setting [2], 76 to 100%; under setting [4], 51 to 75%.

`N#CNc1nc(OCc2ccc(F)cc2)ncc1F` [Compound 451]: the pest or weed control at 25 ppm lay in the range of 0 to 25% under setting [1] and 0 to 25% under setting [3]. The pest or weed control at 100 ppm is, setting by setting: under setting [2], 0 to 25%; under setting [4], 0 to 25%.

With `O=C(Cc1ccccc1)Nc1nc(OCc2cccs2)ncc1F` [Compound 453], the pest or weed control at 25 ppm fell in the range of 76 to 100% under setting [1] and 51 to 75% under setting [3]. In addition, the pest or weed control at 100 ppm lay within 76 to 100% under setting [2] and 76 to 100% under setting [4].

Regarding `ON(c1nc(OCc2ccc(F)cc2)ncc1F)C1CCCCC1` [Compound 454], the pest or weed control at 25 ppm lay within 0 to 25% under setting [1] and 26 to 50% under setting [3]. Also, the pest or weed control at 100 ppm reads like this: under setting [2], 76 to 100%; under setting [4], 0 to 25%.

With `Nc1nc(OCCc2ccc(Cl)cc2)ncc1F` [Compound 455], the pest or weed control at 25 ppm lay within 51 to 75% under setting [1] and 26 to 50% under setting [3]. The pest or weed control at 100 ppm lay in the range of 76 to 100% under setting [2] and 76 to 100% under setting [4].

Take `NN(Cc1ccccc1Cl)c1nc(OCc2ccc(F)cc2)ncc1F` [Compound 456]: the pest or weed control at 25 ppm reads like this: under setting [1], 51 to 75%; under setting [3], 0 to 25%. Moreover, the pest or weed control at 100 ppm is, setting by setting: under setting [2], 76 to 100%; under setting [4], 76 to 100%.

As to `COCCCOc1ncc(F)c(/N=C/N(C)C)n1` [Compound 457], the pest or weed control at 25 ppm is 51 to 75% under setting [1] and 51 to 75% under setting [3]. For the same compound, the pest or weed control at 100 ppm by setting is: under setting [2], 76 to 100%; under setting [4], 76 to 100%.

On to `Fc1cccc(COc2ncc(F)c(NCOCc3ccccc3)n2)c1` [Compound 458], for which the pest or weed control at 25 ppm runs as follows: under setting [1], 0 to 25%; under setting [3], 0 to 25%. Moreover, the pest or weed control at 100 ppm was in the range of 51 to 75% under setting [2] and 0 to 25% under setting [4].

With `COCCOC(=O)Nc1nc(OCc2cccc(OC)c2)ncc1F` [Compound 459], the pest or weed control at 25 ppm reads like this: under setting [1], 51 to 75%; under setting [3], 76 to 100%. Further, the pest or weed control at 100 ppm is, setting by setting: under setting [2], 76 to 100%; under setting [4], 76 to 100%.

With `Nc1nc(OCc2cccc(OC(F)(F)F)c2)ncc1F` [Compound 460], the pest or weed control at 25 ppm is 76 to 100% under setting [1] and 76 to 100% under setting [3]. The pest or weed control at 100 ppm under setting [2] lay in the range of 76 to 100% and the pest or weed control at 100 ppm under setting [4] fell in the range of 76 to 100%.

Regarding `COc1ccc(CCCOc2ncc(F)c(N)n2)cc1` [Compound 462], the pest or weed control at 25 ppm under setting [1] was in the range of 51 to 75% and the pest or weed control at 25 ppm under setting [3] was 51 to 75%. Further, the pest or weed control at 100 ppm was in the range of 76 to 100% under setting [2] and 26 to 50% under setting [4].
